The results in this text go back to PMC2377083, “IDN 5390: an oral taxane candidate for protracted treatment schedules” (British Journal of Cancer, 2003).

Converted amounts (≈) assume the structure as drawn. Where two headings read alike, the source gives them in different places.

A short description of series [1]: Pharmacokinetic study, plasma levels by HPLC. The class given is in vivo, CDF1 mice. To be noted: female, CDF1, mouse. How it is done:
In order to assess the bioavailability of IDN 5390, a pharmaco-kinetic study was performed in female CDF1 mice (Charles River Italia, Calco, Italy). IDN 5390, formulated in Polysorbate 80 and diluted in 0.9% NaCl solution, immediately before treatment, was administered p.o. or i.v. at the dose of 120 mg kg^−1. Blood samples were taken (four mice per group) from the retro-orbital plexus, under diethylether anaesthesia at 5, 15 and 30 min and at 1, 2 and 4 h.
IDN 5390 levels were determined in plasma according to the high-performance liquid chromatography (HPLC) method of [Zaffaroni et al (2002)]. Briefly, plasma samples (0.4 ml) were spiked with 1 μg IDN 5517, as internal standard, and with 0.7 ml of 0.2 M ammonium acetate buffer, pH 4.5, and extracted by solid-phase extraction on a cyano cartridge (Waters, Millford, MA, USA). HPLC analyses were carried out on a Symmetry C18 column (3.5 μm, 4.6 × 150 mm; Waters, London, UK), with UV detection of the analytes at 227 nm. The lower limit of quantitation was of 50 ng ml^−1.
Pharmacokinetic parameters were calculated by using a nonlinear fitting program ([Sacchi-Landriani et al, 1983]). The experimental areas under the concentration–time curve (AUCexp) of IDN 5390 were calculated by the trapezoidal rule. Extrapolations to infinity (AUCinf) were obtained by dividing the concentration at the last experimental points by the elimination constant (Ke). The terminal half-lives (T1/2) were calculated using the formula T1/2=0.693/Ke. Clearance (Clp) and volume of distribution (Vd) were obtained from the following relation: Clp=Dose/AUCext and Vd=Clp/Ke, respectively. The bioavailability (F) was derived from the ratio: F=AUCp.o./AUCi.v. 100.

Series [2] deals with MX-1 (human mammary carcinoma). As to the kind of experiment: Antiproliferative activity, MX-1. The class given is cell-based. To be noted: 72 h treatment, cell counting, mean±s.d., three experiments. The protocol:
Drugs were dissolved in DMSO and freshly diluted in medium before use. The antiproliferative activity was evaluated on A2780 (human ovarian carcinoma) and its derived drug-resistant cell lines (A2780/DX, A2780/DDP), IGROV-1/Pt1 (human ovarian carcinoma), GBM (human glioblastoma) and MX-1 (human mammary carcinoma). All cell lines, except MX-1, were maintained in RPMI 1640 (Bio-Whittaker, Verviers, Belgium) supplemented with 10% fetal calf serum (Life Technologies, Gaithersburg, MD, USA). MX-1 cells were maintained in McCoy's medium (Life Technologies, Gaithersburg, MD, USA) supplemented with 10% fetal calf serum. For experiments, all cell lines were seeded into six-well plates in duplicate and treated, 24 or 72 h (only MX-1 cells) after seeding, with solvent or different concentrations of taxanes. Adherent cells were counted 72 h after the beginning of treatment, by a cell counter (Coulter Electronics, Luton, UK) or detected by the Sulforhodamine B colorimetric assay (only GBM cells). The IC50 was defined as the drug concentration causing a 50% decrease in cell number over that of untreated controls.

A short description of another series: in vivo. To be noted: female, athymic nude CD-1, mouse, sc.
Series [3] deals with IGROV-1 PTX-resistant ovarian tumour xenograft. Put plainly: Antitumour activity on IGROV-1 xenograft. To be noted: p.o., qd × 5/w × 3w, 120 mg kg^−1.
Protocol: All the experiments were carried out using female athymic nude CD-1 mice, 8–11 weeks old (Charles River, Calco, Italy). The mice were maintained in laminar flow rooms with constant temperature and humidity.
Taxanes were dissolved by adding absolute ethanol and Cremophor ELP (both 5% of the final volume), in that sequence, on a magnetic stirrer. […] After dilution, the drug solutions were always kept on ice. […] (Milano, Italy) and, just before use, it was diluted, by slowly adding 0.9% NaCl and occasionally stirring the solution (final Polysorbate 80: 10%, v v^−1). […] When higher doses were to be given, larger volumes were injected.
Tumour lines were maintained in vivo by successive s.c. transplants of tumour fragments in animal flanks.
For chemotherapy experiments, tumour fragments (about 2 × 2 × 2 mm), obtained from tumour lines, were implanted s.c. Each control or drug-treated group included five or six mice bearing bilateral s.c. tumours. Tumours were implanted on day 0, and tumour growth was followed by biweekly measurements of tumour diameters with a vernier caliper. Tumour weight (TW) was calculated according to the formula: TW (mg)=tumour volume (mm^3)=d^2 × D/2, where d and D are the shortest and the longest diameter, respectively. Different treatment routes (i.v., s.c. or p.o.) and schedules (daily or intermittent) were investigated. […] Control mice were injected with the solvent solution.
Experimental groups were eliminated when mean TW was about 1.5±0.5 g, or after 100 days.
For statistical analysis, tumour weights in different groups of treated mice were compared on day of TWI% evaluation, by Student's t-test (two-tailed). P⩽0.05 was considered significant.
The tolerability of the compound was assessed in tumour-bearing mice as follows: (a) lethal toxicity, that is, any death in treated mice without or with small (⩽300 mg) tumours, or occurring before any control death; (b) body weight loss % (BWL%)=100–(BW on day x/BW on day 1 × 100), where x represents a day after or during the treatment period. The maximal BWL values are reported; and (c) vesicant toxicity defined as the appearance of ulcers and/or inflammation at the injection site where the drugs were delivered s.c.

The term bioavailability denotes the share of a dose that reaches the circulation, judged against a reference dose that is usually intravenous. Low values mean little systemic uptake, high ones much systemic uptake. As a reminder, the AUC is concentration integrated over time. Read a low AUC as less exposure. The term AUC(0-inf) denotes the area under the concentration-time curve extrapolated to infinity. The low end stands for low exposure, the high end for high exposure. By Cmax is commonly meant the maximum level reached in the sampled fluid or tissue. The Tmax is the time from dosing to the highest level. In general, clearance refers to a measure of how efficiently the substance is removed, as volume per time. Lower therefore signals a low capacity for elimination. The IC50 is the concentration that inhibits the measured activity by half. The low end stands for greater potency, the high end for weaker potency. Take `CC(=O)O[C@@]1([C@@H]2/C(C)=C(/O)C(=O)C3=C(C)[C@@H](OC(=O)[C@H](O)[C@H](CC(C)C)NC(=O)OC(C)(C)C)C[C@@](O)([C@H]2OC(=O)c2ccccc2)C3(C)C)CO[C@@H]1CCO` [IDN 5390, 13-(N-Boc-β-isobutylisoserinyl)-10β-dehydro-C-seco-10-deacetylbaccatin III]: in series [1] (in vivo, bioavailability (F)), the bioavailability was 27.3%. The same molecule returned a Vd in series [1] (in vivo, iv) of 0.21. In series [1] (in vivo, iv, 120 mg/kg), the AUC was 125000 ng·h/mL, the AUC(0-inf) was found to be 128000 ng·h/mL, the Cmax worked out at 161 µg/mL and the Tmax is 5 min. Moreover, in series [1] (in vivo, iv, 120 mg/kg), the clearance was 15.5 mL/min/kg and the half-life came out at 54 min. Further, in series [1] (in vivo, po, 120 mg/kg), the AUC is 34400 ng·h/mL, the AUC(0-inf) is 35100 ng·h/mL, the highest level (Cmax) was 25 µg/mL and the Tmax was 30 min. The molecule further gave a half-life in series [1] (in vivo, po, 120 mg/kg) of 42 min. Also, in series [1] (plasma, 120 mg kg^−1, in mice, read-out: T1/2), the half-life was less than 60 min. The molecule further gave an IC50 in series [2] of 0.0345 ± 0.0078 µg/mL (≈ 0.0438 µM). The same molecule came in with an MTD in the series “in vivo” of 120 mg/kg. In series [3], the “LCK (1 g)” value is 2.2, the “Max BWL (%)” value is given as 13%, the “TWI% (day 27)” value was 73% and the Tox/Tot is on record as 0/4.
